Measured values from patent US20230129326A1, “METHODS TO PREVENT SARS-COV-2 INFECTION AND TREAT COVID-19” (priority 2020, published 2023).
In brackets after ≈: the same amount, converted by molar mass.

What was measured:
[1] = system: SARS-CoV-2 pseudovirus entry in ACE2 expressing cells; format: cell-based
[2] = system: SARS-CoV-2 isolate USA-WA1/2020; assay: microbe, parasite or virus in culture; format: cell-based; conditions: Severe acute respiratory syndrome coronavirus 2, A549, read-out: EC50 against SARS-CoV-2 isolate USA-WA1/2020 in A549 overexpressing ACE2

| Compound | level of SARS-CoV-2 pseudovirus entry, varying concentrations (FIG. 15A) [1] | viral infection (GFP positive cells per image field) [1] | level of SARS-CoV-2 pseudovirus entry, varying concentrations (diminazene, cetirizine, labetalol graph) [1] | EC50 [2] [µg/mL] |
| --- | --- | --- | --- | --- |
| CN1CCCC(n2nc(Cc3ccc(Cl)cc3)c3ccccc3c2=O)CC1 (centres unmarked) [azelastine] | significantly lowered the level of SARS-CoV-2 pseudovirus entry | substantially reduced viral infection | – | – |
| O=C(O)COCCN1CCN(C(c2ccccc2)c2ccc(Cl)cc2)CC1 (centres unmarked) [cetirizine] | – | reduced viral infection | significantly lowered the level of SARS-CoV-2 pseudovirus entry | – |
| CN(C)CCC(c1ccc(Cl)cc1)c1ccccn1 (centres unmarked) [chlorpheniramine] | – | reduced viral infection | – | – |
| N=C(N)c1ccc(/N=N/Nc2ccc(C(=N)N)cc2)cc1 [diminazene] | – | reduced viral infection | significantly lowered the level of SARS-CoV-2 pseudovirus entry | – |
| CN(C)CCOC(c1ccccc1)c1ccccc1 [diphenhydramine] | – | substantially reduced viral infection | – | – |
| OCCOCCN1CCN(C(c2ccccc2)c2ccc(Cl)cc2)CC1 (centres unmarked) [hydroxyzine] | significantly lowered the level of SARS-CoV-2 pseudovirus entry | substantially reduced viral infection | – | 27.3 (≈ 72.9 µM) |
